# Measured values reported in ChEMBL document CHEMBL1133962, “Bicyclic anti-VZV nucleosides: Thieno analogues retain full antiviral activity” (Bioorg Med Chem Lett, 2001).
# Key:
# HEL [1] = experiment: Antiviral activity was measured as effective concentration required to reduce thymidine kinase-deficient. Varicella Zoster virus (07/1)-induced plaque formation in human embryonic lung cells; assay type: functional, cell-based
# HEL [2] = experiment: Cytotoxic concentration required to inhibit growth of human embryonic lung cells (HEL); assay type: functional
# HEL [3] = experiment: Antiviral activity was measured as effective concentration required to reduce Varicella Zoster virus (YS)-induced plaque formation in human embryonic lung cells; assay type: functional, cell-based
# HEL [4] = experiment: Antiviral activity was measured as effective concentration required to reduce Varicella Zoster virus (OKA)-induced plaque formation in human embryonic lung cells; assay type: functional, cell-based
# HEL [5] = experiment: Minimal cytotoxic concentration required to alter microscopically detectable cell (of human embryonic lung cells (HEL)) morphology; assay type: functional
# HEL [6] = experiment: Antiviral activity was measured as effective concentration required to reduce thymidine kinase-deficient. Varicella Zoster virus (YS/R)-induced plaque formation in human embryonic lung cells; assay type: functional, cell-based
Compound,EC50 (HEL [1]),CC50 (HEL [2]),EC50 (HEL [3]),EC50 (HEL [4]),MCC (HEL [5]),EC50 (HEL [6])
CCCCCCCCCCc1cc2cn([C@H]3C[C@H](O)[C@@H](CO)O3)c(=O)nc2o1,> 50 µM,> 50 µM,0.008 µM,0.015 µM,> 50 µM,> 50 µM
CCCCCCCCc1cc2cn([C@H]3C[C@H](O)[C@@H](CO)O3)c(=O)nc2s1,≥ 5 µM,53 µM,0.005 µM,0.002 µM,20 µM,> 5 µM
CCCCc1cc2cn([C@H]3C[C@H](O)[C@@H](CO)O3)c(=O)nc2s1,≥ 200 µM,> 200 µM,0.15 µM,0.16 µM,≥ 100 µM,153 µM
CCCCCCc1cc2cn([C@H]3C[C@H](O)[C@@H](CO)O3)c(=O)nc2s1,≥ 50 µM,> 200 µM,0.14 µM,0.14 µM,125 µM,≥ 50 µM
CCCCCCCCCCc1cc2cn([C@H]3C[C@H](O)[C@@H](CO)O3)c(=O)nc2s1,> 5 µM,54 µM,0.06 µM,0.03 µM,20 µM,> 5 µM
CCCCCCCCCc1cc2cn([C@H]3C[C@H](O)[C@@H](CO)O3)c(=O)nc2s1,> 20 µM,> 20 µM,0.01 µM,0.01 µM,> 20 µM,> 20 µM
CCCCCCCCCCCCc1cc2cn([C@H]3C[C@H](O)[C@@H](CO)O3)c(=O)nc2s1,> 5 µM,49 µM,0.3 µM,0.2 µM,12 µM,> 5 µM
Nc1nc2c(ncn2COCCO)c(=O)[nH]1 [ACYCLOVIR],40 µM,> 400 µM,1.5 µM,1.1 µM,> 200 µM,44 µM
